# Laboratory results from patent US20240101510A1, “APYRASE INHIBITORS” (Texas Crop Science, priority 2022, published 2024).
# Test system: apyrase
# Test: In vitro apyrase assay (screen for apyrase inhibitors, phosphate release read at 630 nm)
# Format: biochemical
# Conditions: inhibitor conc at 1 mM; 1 hr at room temperature; rounded average of two assay results
# Method: Method 1: In Vitro Apyrase Assay: Apyrase inhibitors useful as enhancers of pesticidal activity are assessed using an in vitro assay. The method of Windsor, Bio Techniques 33:1024-1030 (November 2002) was used as follows: Screen for Apyrase Inhibitors - 96 well plates were used for the assay: (Greiner bio-one: REF-655901-96 well, PS, F-bottom, Clear, Non-binding) Buffers: • Reaction Buffer: 60 mM Hepes; 3 mM MgCl2, 3 mM CaCl2 and 3 mM ATP (pH 6.5) • Development Buffer A: 2% aqueous ammonium molybdate • Development Buffer B: 11% ascorbic acid in 37.5% TCA in water • Stop buffer C: 2% trisodium citrate in 2% acetic acid solution in water • Add 100 μl of reaction buffer to each well. • Add […] (control) or inhibitor/compound or compounds such as […] or orthovanadate to each well. […] A blank cell indicates either <10% observed inhibition or a large difference between repetitions. In certain examples, the lack of observed inhibition is due to a lack of solubility of the compound under assay conditions, rather than a lack of apyrase inhibitory activity. Roux compound 15 inhibited apyrase in this assay at about 60%.
row,% Inhibition of Apyrase [%],SMILES
1,74,"C/C(=N\NC(=O)c1cccc(S(=O)(=O)Nc2ccccc2Cl)c1)c1ccc2ccccc2c1 [I-1, (E)-N-(2-chlorophenyl)-3-(2-(1-(naphthalen-2-yl)ethylidene)hydrazine-1-carbonyl)benzenesulfonamide]"
2,60,"C/C(=N\NC(=O)c1ccc(NS(=O)(=O)c2cccs2)cc1)c1ccc2ccccc2c1 [I-2, (E)-N-(4-(2-(1-(naphthalen-2-yl)ethylidene)hydrazine-1-carbonyl)phenyl)thiophene-2-sulfonamide]"
3,46,"C/C(=N\NC(=O)c1cccc(S(=O)(=O)N2CCOCC2)c1)c1ccc2ccccc2c1 [I-3, (E)-3-(morpholinosulfonyl)-N′-(1-(naphthalen-2-yl)ethylidene)benzohydrazide]"
4,22,"CCCCCCCCC/C(C)=N\NC(=O)c1ccccc1 [I-5, (Z)-N′-(undecan-2-ylidene)benzohydrazide]"
5,22,"C/C(=N\NC(=O)c1cncc(Br)c1)c1ccc2ccccc2c1 [I-6, (E)-5-bromo-N′-(1-(naphthalen-2-yl)ethylidene)nicotinohydrazide]"
6,20,"C/C(=N/NC(=O)c1cccc(C)c1)c1ccc2ccccc2c1 [I-7, (Z)-3-methyl-N′-(1-(naphthalen-2-yl)ethylidene)benzohydrazide]"
7,19,"C/C(=N\NC(=O)c1ccc(-n2cnnn2)cc1)c1ccc2ccccc2c1 [I-8, (E)-N′-(1-(naphthalen-2-yl)ethylidene)-4-(1H-tetrazol-1-yl)benzohydrazide]"
8,17,"C/C(=N\NC(=O)c1ccc2c(c1)OCO2)c1cccnc1 [I-10, (E)-N′-(1-(pyridin-3-yl)ethylidene)benzo[d][1,3]dioxole-5-carbohydrazide]"
9,17,"C/C(=N\NC(=O)c1cccc2ccccc12)c1ccc(C)c(C)c1 [I-11, (E)-N′-(1-(3,4-dimethylphenyl)ethylidene)-1-naphthohydrazide]"
10,16,"C/C(=N\NC(=O)c1ccccc1F)c1ccncc1 [I-12, (E)-2-fluoro-N′-(1-(pyridin-4-yl)ethylidene)benzohydrazide]"
11,16,"COc1ccc2cc(/C(C)=N/NC(=O)c3ccc4c(c3)OCO4)ccc2c1 [I-13, (E)-N′-(1-(6-methoxynaphthalen-2-yl)ethylidene)benzo[d][1,3]dioxole-5-carbohydrazide]"
12,16,"C/C(=N\NC(=O)c1n[nH]c2c1CCCC2)c1ccc2ccccc2c1 [I-14, (E)-N′-(1-(naphthalen-2-yl)ethylidene)-4,5,6,7-tetrahydro-1H-indazole-3-carbohydrazide]"
13,15,"C/C(=N\NC(=O)c1cc(C)n[nH]1)c1ccc2ccccc2c1 [I-15, (E)-3-methyl-N′-(1-(naphthalen-2-yl)ethylidene)-1H-pyrazole-5-carbohydrazide]"
14,14,"CCCCCC(=O)N/N=C(\C)c1cccc2ccccc12 [I-16, (E)-N′-(1-(naphthalen-1-yl)ethylidene)hexanehydrazide]"
15,14,"C/C(=N/NC(=O)c1ccccc1)C(=O)O [I-17, (Z)-2-(2-benzoylhydrazineylidene)propanoic acid]"
16,13,"C/C(=N\NC(=O)c1ccccc1C)c1ccccn1 [I-18, (E)-2-methyl-N′-(1-(pyridin-2-yl)ethylidene)benzohydrazide]"
17,13,"CCC/C=N/NC(=O)c1ccccc1 [I-19, (E)-N′-butylidenebenzohydrazide]"
18,12,"COc1ccc2cc(/C(C)=N/NC(=O)c3ccc(OC)c(OC)c3)ccc2c1 [I-20, (E)-3,4-dimethoxy-N′-(1-(6-methoxynaphthalen-2-yl)ethylidene)benzohydrazide]"

row,% Inhibition of Apyrase [%],SMILES
1,12,"C/C(=N/NC(=O)c1ccc2nc[nH]c2c1)c1ccc2ccccc2c1 [I-21, (Z)-N′-(1-(naphthalen-2-yl)ethylidene)-1H-benzo[d]imidazole-6-carbohydrazide]"
2,12,"C/C(=N\NC(=O)c1ccccc1)c1ccc(-c2ccccc2)cc1 [I-22, (E)-N′-(1-([1,1′-biphenyl]-4-yl)ethylidene)benzohydrazide]"
3,12,"C/C(=N\NC(N)=O)c1cccc2ccccc12 [I-23, (E)-2-(1-(naphthalen-1-yl)ethylidene)hydrazine-1-carboxamide]"
4,11,"CCCCCC(=O)N/N=C(/C)c1ccc2ccccc2c1 [I-24, (Z)-N′-(1-(naphthalen-2-yl)ethylidene)hexanehydrazide]"
5,11,"CCc1ccc(/C=N/NC(=O)c2ccccc2)cc1 [I-25, (E)-N′-(4-ethylbenzylidene)benzohydrazide]"
6,11,"CC(C)(C)/C=N/NC(=O)c1ccccc1 [I-26, (E)-N′-(2,2-dimethylpropylidene)benzohydrazide]"
7,10,"C/C(=N\NC(=O)c1ccc(Cl)cc1Cl)c1ccccn1 [I-27, (E)-2,4-dichloro-N′-(1-(pyridin-2-yl)ethylidene)benzohydrazide]"
8,10,"C/C(=N\NC(=O)c1cccc([N+](=O)[O-])c1)c1ccc2ccccc2c1 [I-29, (E)-N′-(1-(naphthalen-2-yl)ethylidene)-3-nitrobenzohydrazide]"
9,10,"CCCC(CCC)=NNC(=O)c1ccccc1F [I-30, 2-fluoro-N′-(heptan-4-ylidene)benzohydrazide]"
10,10,"C/C(=N\NC(=O)c1cccc(Cl)c1)c1ccc2ccccc2c1 [I-31, (E)-3-chloro-N′-(1-(naphthalen-2-yl)ethylidene)benzohydrazide]"
11,10,"C/C(=N/NC(=O)c1cccc(C)c1)C1CC1 [I-32, (Z)-N′-(1-cyclopropylethylidene)-3-methylbenzohydrazide]"
12,10,"Cc1ccc(/C=N/NC(=O)c2ccccc2)cc1 [I-33, (E)-N′-(4-methylbenzylidene)benzohydrazide]"
13,74,"CC(=NNC(=O)c1cccc(C)c1)c1ccc2c(c1)CCCC2 [I-204, (E)-3-methyl-N′-(1-(5,6,7,8-tetrahydronapthalen-2-yl)ethylidene)benzohydrazide]"
14,68,"C/C(=N\NC(=O)c1cnnc(C)c1)c1ccc2ccccc2c1 [I-205, (E)-6-methyl-N′-(1-(naphthalen-2-yl)ethylidene)pyridazine-4-carbohydrazide]"
15,68,"C/C(=N\NC(=O)c1ccc(C)c(C)c1)c1ccc2ccccc2c1 [I-206, (E)-3,4-dimethyl-N′-(1-(naphthalen-2-yl)ethylidene)benzohydrazide]"
16,68,"C/C(=N\NC(=O)c1cc(C)cs1)c1ccc2ccccc2c1 [I-207, (E)-4-methyl-N′-(1-(naphthalen-2-yl)ethylidene)thiophene-2-carbohydrazide]"
17,66,"C/C(=N\NC(=O)c1ccc(NS(C)(=O)=O)cc1)c1ccc2ccccc2c1 [I-208, (E)-N-(4-(2-(1-(naphthalen-2-yl)ethylidene)hydrazine-1-carbonyl)phenyl)methanesulfonamide]"
18,65,"C/C(=N\NC(=O)c1cccc(N(C)C)c1)c1ccc2ccccc2c1 [I-209, (E)-3-(dimethylamino)-N′-(1-(naphthalen-2-yl)ethylidene)benzohydrazide]"
